Laboratory results taken from patent publication US5384405A, “Process for making N-hydroxyl-2-thio-ouinazolin-4-ones” (Olin Corporation, priority 1994, dated 1995).
≈ marks a conversion by molar mass, not a printed value. Read-outs that look alike come from different tables or passages of the source.

Columns and labels:
Candida albicans = assay: Minimum inhibitory concentration (MIC), serial dilution in broth, Candida albicans; type: cell-based; conditions: 120 h, read-out: MIC, A = Candida albicans
Method: (§1) Solutions of the experimental compounds in dimethyl sulfoxide and an aqueous solution of sodium pyrithione were serially diluted in nutrient broth (Tryptic Soy Broth for bacteria and Sabouraud Dextrose Broth for fungi) in microtiter plates. Equal volumes of a broth suspension of bacteria (10^6 CFU/ml) or fungi (10^5 cells or spores/ml) were added to each dilution, and the plates were incubated at 37° C. (bacteria and yeast) or 28° C. (molds). Bacteria, yeast, and molds were incubated two, five, and seven days respectively before determining the highest inhibitory dilution.

Aspergillus niger = assay: Minimum inhibitory concentration (MIC), serial dilution in broth, Aspergillus niger; type: cell-based; conditions: 168 h, read-out: MIC, C = Aspergillus niger
Method: as §1

Aureobasidium pullulans = assay: Minimum inhibitory concentration (MIC), serial dilution in broth, Aureobasidium pullulans; type: cell-based; conditions: 168 h, read-out: MIC, B = Aureobasidium pullulans
Method: as §1

Fusarium = assay: Minimum inhibitory concentration (MIC), serial dilution in broth, Fusarium; type: cell-based; conditions: 168 h, read-out: MIC, D = Fusarium
Method: as §1

[1] = UV stability (photolysis in aqueous solution, immersion well photochemical apparatus); type: physicochemical
Method: The UV stability of IIa was evaluated using a immersion well photochemical apparatus equipped with a Hanovia 450 Watt medium pressure lamp. An aqueous solution (100 ppm in KH2 PO4 buffer pH=7) was irradiated at 25° C. with air agitation for a period of 110 minutes. The rate of photolysis was monitored by UV spectroscopy. Aliquots were taken through a side port of the apparatus into an amber vial and the absorption at 325 nm was measured. A sodium pyrithione aqueous solution (i.e., sodium OMADINE® biocide) was irradiated similarly for comparative purposes.

[2] = yeast, 37° C., five days, Sabouraud Dextrose Broth
[3] = molds: 28° C., seven days, Sabouraud Dextrose Broth
[4] = fungi, Sabouraud Dextrose Broth, molds: 28° C., seven days

Row | Compound | MIC (Candida albicans) [µg/mL] | MIC (Aspergillus niger) [µg/mL] | MIC (Aureobasidium pullulans) [µg/mL] | MIC (Fusarium) [µg/mL] | MIC (Candida albicans; [2]) [µg/mL] | MIC (Aspergillus niger; [3]) [µg/mL] | MIC (Aureobasidium pullulans; [4]) [µg/mL] | MIC (Fusarium; [3]) [µg/mL] | half-life ([1]; first order, 100 ppm in KH2PO4 buffer pH=7, 25° C., 450 Watt medium pressure lamp, absorption at 325 nm, read-out: photodecomposition T1/2) [min] | photodecomposition time (decomposed in) ([1]; aqueous solution, same conditions as IIa (pH=7, 25° C., 450 Watt lamp)) [s]
1 | CNC(=O)On1c(=S)n(C)c(=O)c2ccccc21 [IIn, 1-N-METHYLCARBAMATE-3-METHYL-2-THIO-1,2-DIHYDROQUINAZOLINE-4(3H)-ONE] | 4 (≈ 15.1 µM) | 8 (≈ 30.2 µM) | 8 (≈ 30.2 µM) | 16 (≈ 60.3 µM) | – | – | – | – | – | –
2 | C=CC(=O)On1c(=S)n(C)c(=O)c2ccccc21 [Compound IIj] | – | – | – | – | 4 (≈ 15.3 µM) | 8 (≈ 30.5 µM) | 4 (≈ 15.3 µM) | 16 (≈ 61 µM) | – | –
3 | CNC(=S)N(O)c1ccc(C)cc1C(=O)OC [Id] | – | – | – | – | 8 (≈ 31.5 µM) | 8 (≈ 31.5 µM) | 8 (≈ 31.5 µM) | 512 (≈ 2010 µM) | – | –
4 | Cn1c(=O)c2ccccc2n(O)c1=S.[Na] [IIa-Na, 1-hydroxy-3-methyl-2-thioxo-1,2-dihydroquinazoline-4(3H)-one, sodium salt] | – | – | – | 4 | – | – | – | – | – | –
5 | COn1c(=S)n(C)c(=O)c2ccccc21 [IIh] | – | – | – | – | 256 (≈ 1150 µM) | 512 (≈ 2300 µM) | 512 (≈ 2300 µM) | 512 (≈ 2300 µM) | – | –
6 | Cn1c(=O)c2ccccc2n(OC(=O)O)c1=S [IIm] | – | – | – | – | 4 (≈ 15.9 µM) | 8 (≈ 31.7 µM) | 8 (≈ 31.7 µM) | 16 (≈ 63.4 µM) | – | –
7 | O=c1c2ccccc2n(O)c(=S)n1-c1ccccc1 [IIe] | – | – | – | – | 16 (≈ 59.2 µM) | 32 (≈ 118 µM) | 16 (≈ 59.2 µM) | 64 (≈ 237 µM) | – | –
8 | O=c1[nH]c(=S)n(O)c2ccccc12 [Compound IIg] | – | – | – | – | 64 (≈ 330 µM) | 1020 (≈ 5270 µM) | 128 (≈ 659 µM) | 512 (≈ 2640 µM) | – | –
9 | CCOC(=O)c1ccccc1N(O)C(=S)NC [Ib] | – | – | – | – | 8 (≈ 31.5 µM) | 8 (≈ 31.5 µM) | 8 (≈ 31.5 µM) | 128 (≈ 503 µM) | – | –
10 | Cn1c(=O)c2ccccc2n(O)c1=S [Compound IIa, 1-HYDROXY-3-METHYL-2-THIOXO-1,2-DIHYDROQUINAZOLINE-4(3H)-ONE] | – | – | – | – | < 2 | < 2 | < 2 | 128 (≈ 615 µM) | 55 | –
11 | C=C(C)C(=O)On1c(=S)n(C)c(=O)c2ccccc21 [IIl] | – | – | – | – | 128 (≈ 463 µM) | 32 (≈ 116 µM) | 4 (≈ 14.5 µM) | 512 (≈ 1850 µM) | – | –
12 | CCOC(=O)c1ccccc1N(O)C(=S)Nc1ccccc1 [Ie] | – | – | – | – | 16 (≈ 50.6 µM) | 64 (≈ 202 µM) | 32 (≈ 101 µM) | 64 (≈ 202 µM) | – | –
13 | C=CCn1c(=O)c2ccccc2n(O)c1=S [IIf] | – | – | – | – | 4 (≈ 17.1 µM) | 16 (≈ 68.3 µM) | 16 (≈ 68.3 µM) | 8 (≈ 34.1 µM) | – | –
14 | Cn1c(=O)c2ccccc2n(OC(=O)c2ccccc2)c1=S [IIk] | – | – | – | – | 512 (≈ 1640 µM) | 512 (≈ 1640 µM) | 256 (≈ 820 µM) | 512 (≈ 1640 µM) | – | –
15 | Cc1ccc2c(c1)c(=O)n(C)c(=S)n2O [IId] | – | – | – | – | < 2 | < 2 | 4 (≈ 18 µM) | 128 (≈ 576 µM) | – | –
16 | On1ccccc1=S [sodium pyrithione, reference compound] | – | – | – | – | – | – | – | – | – | 15
17 | Cn1c(=O)c2ccc(Cl)cc2n(O)c1=S [IIc] | – | – | – | – | < 2 | 4 (≈ 16.5 µM) | < 2 | 64 (≈ 264 µM) | – | –
18 | CC(=O)On1c(=S)n(C)c(=O)c2ccccc21 [IIi, 1-ACETOYLOXY-3-METHYL-2-THIOXO-1,2-DIHYDROQUINAZOLINE-4(3H)-ONE] | – | – | – | – | 2 (≈ 7.99 µM) | – | – | – | – | –
19 | C=CCNC(=S)N(O)c1ccccc1C(=O)OCC [If] | – | – | – | – | 4 (≈ 14.3 µM) | 16 (≈ 57.1 µM) | 16 (≈ 57.1 µM) | 16 (≈ 57.1 µM) | – | –
20 | CNC(=S)N(O)c1cc(Cl)ccc1C(=O)OC [Ic] | – | – | – | – | < 2 | 8 (≈ 29.1 µM) | 4 (≈ 14.6 µM) | 128 (≈ 466 µM) | – | –
